Measurements: ChEMBL document CHEMBL2440076, “New triarylpyrazoles as broad-spectrum anticancer agents: design, synthesis, and biological evaluation” (Eur J Med Chem, 2013)

What was measured:
[1] = tested on: MDA-MB-468; test: Growth inhibition of human MDA-MB-468 cells assessed as cell growth at 10 uM after 48 hrs by sulforhodamine B assay; type: functional; details: MDA-MB-468, 48 h, read-out: Activity
[2] = tested on: BT-549; test: Growth inhibition of human BT549 cells assessed as cell growth at 10 uM after 48 hrs by sulforhodamine B assay; type: functional; details: BT-549, 48 h, read-out: Activity
[3] = Growth inhibition of human Hs 578T cells assessed as cell growth at 10 uM after 48 hrs by sulforhodamine B assay; type: functional; details: read-out: Activity
[4] = tested on: MDA-MB-231; test: Growth inhibition of human MDA-MB-231 cells assessed as cell growth at 10 uM after 48 hrs by sulforhodamine B assay; type: functional; details: MDA-MB-231, 48 h, read-out: Activity
[5] = tested on: DU-145; test: Growth inhibition of human DU145 cells assessed as cell growth at 10 uM after 48 hrs by sulforhodamine B assay; type: functional; details: DU-145, 48 h, read-out: Activity
[6] = tested on: TK-10; test: Growth inhibition of human TK10 cells assessed as cell growth at 10 uM after 48 hrs by sulforhodamine B assay; type: functional; details: TK-10, 48 h, read-out: Activity
[7] = tested on: NCI-H522; test: Growth inhibition of human NCI-H522 cells after 48 hrs by sulforhodamine B assay; type: functional; details: NCI-H522, 48 h
[8] = tested on: HOP-62; test: Growth inhibition of human HOP62 cells after 48 hrs by sulforhodamine B assay; type: functional; details: HOP-62, 48 h; for CC50: read-out: LC50 (the source's name)
[9] = tested on: SR; test: Growth inhibition of human SR cells after 48 hrs by sulforhodamine B assay; type: functional; details: for CC50: read-out: LC50 (the source's name)
[10] = tested on: MOLT-4; test: Growth inhibition of human MOLT4 cells after 48 hrs by sulforhodamine B assay; type: functional; details: MOLT-4, 48 h; for CC50: read-out: LC50 (the source's name)
[11] = tested on: HL-60(TB); test: Growth inhibition of human HL-60(TB) cells after 48 hrs by sulforhodamine B assay; type: functional; details: HL-60, 48 h; for CC50: read-out: LC50 (the source's name)
[12] = tested on: UACC-257; test: Growth inhibition of human UACC257 cells assessed as cell growth at 10 uM after 48 hrs by sulforhodamine B assay; type: functional; details: UACC-257, 48 h, read-out: Activity
[13] = tested on: MDA-MB-435; test: Growth inhibition of human MDA-MB-435 cells assessed as cell growth at 10 uM after 48 hrs by sulforhodamine B assay; type: functional; details: MDA-MB-435, 48 h, read-out: Activity
[14] = tested on: HT-29; test: Growth inhibition of human HT-29 cells assessed as cell growth at 10 uM after 48 hrs by sulforhodamine B assay; type: functional; details: HT-29, 48 h, read-out: Activity
[15] = tested on: KM12; test: Growth inhibition of human KM12 cells assessed as cell growth at 10 uM after 48 hrs by sulforhodamine B assay; type: functional; details: KM12, 48 h, read-out: Activity
[16] = tested on: HCT-116; test: Growth inhibition of human HCT116 cells assessed as cell growth at 10 uM after 48 hrs by sulforhodamine B assay; type: functional; details: HCT-116, 48 h, read-out: Activity
[17] = tested on: COLO 205; test: Growth inhibition of human COLO205 cells assessed as cell growth at 10 uM after 48 hrs by sulforhodamine B assay; type: functional; details: COLO 205, 48 h, read-out: Activity
[18] = tested on: NCI-H23; test: Growth inhibition of human NCI-H23 cells assessed as cell growth at 10 uM after 48 hrs by sulforhodamine B assay; type: functional; details: NCI-H23, 48 h, read-out: Activity
[19] = tested on: NCI-H226; test: Growth inhibition of human NCI-H226 cells assessed as cell growth at 10 uM after 48 hrs by sulforhodamine B assay; type: functional; details: NCI-H226, 48 h, read-out: Activity
[20] = tested on: SN12C; test: Growth inhibition of human SN12C cells after 48 hrs by sulforhodamine B assay; type: functional; details: for CC50: read-out: LC50 (the source's name)
[21] = tested on: ACHN; test: Growth inhibition of human ACHN cells after 48 hrs by sulforhodamine B assay; type: functional; details: for CC50: read-out: LC50 (the source's name)
[22] = tested on: 786-0; test: Growth inhibition of human 786-0 cells after 48 hrs by sulforhodamine B assay; type: functional; details: 786-0, 48 h; for CC50: read-out: LC50 (the source's name)
[23] = tested on: SK-OV-3; test: Growth inhibition of human SKOV3 cells after 48 hrs by sulforhodamine B assay; type: functional; details: SK-OV-3, 48 h; for CC50: read-out: LC50 (the source's name)
[24] = tested on: OVCAR-8; test: Growth inhibition of human OVCAR8 cells after 48 hrs by sulforhodamine B assay; type: functional; details: OVCAR-8, 48 h; for CC50: read-out: LC50 (the source's name)
[25] = tested on: IGROV-1; test: Growth inhibition of human IGROV1 cells after 48 hrs by sulforhodamine B assay; type: functional; details: IGROV-1, 48 h
[26] = tested on: UACC-62; test: Growth inhibition of human UACC62 cells after 48 hrs by sulforhodamine B assay; type: functional; details: UACC-62, 48 h
[27] = tested on: SK-MEL-28; test: Growth inhibition of human SK-MEL-28 cells after 48 hrs by sulforhodamine B assay; type: functional; details: SK-MEL-28, 48 h
[28] = tested on: SK-MEL-2; test: Growth inhibition of human SK-MEL-2 cells after 48 hrs by sulforhodamine B assay; type: functional; details: SK-MEL-2, 48 h
[29] = tested on: M14; test: Growth inhibition of human M14 cells after 48 hrs by sulforhodamine B assay; type: functional; details: M14, 48 h
[30] = tested on: U-251; test: Growth inhibition of human U251 cells after 48 hrs by sulforhodamine B assay; type: functional; details: U-251, 48 h
[31] = tested on: SF-268; test: Growth inhibition of human SF268 cells after 48 hrs by sulforhodamine B assay; type: functional; details: SF-268, 48 h; for CC50: read-out: LC50 (the source's name)
[32] = tested on: SF-295; test: Growth inhibition of human SF295 cells after 48 hrs by sulforhodamine B assay; type: functional, cell-based; details: SF-295, 48 h; for CC50: read-out: LC50 (the source's name)
[33] = tested on: MOLT-4; test: Growth inhibition of human MOLT4 cells assessed as cell growth at 10 uM after 48 hrs by sulforhodamine B assay; type: functional; details: MOLT-4, 48 h, read-out: Activity
[34] = tested on: K562; test: Growth inhibition of human K562 cells assessed as cell growth at 10 uM after 48 hrs by sulforhodamine B assay; type: functional; details: K562, 48 h, read-out: Activity

## COc1cc(-c2nn(-c3cccc(NC(=O)c4ccc(N5CCOCC5)c(C(F)(F)F)c4)c3)cc2-c2ccncc2)ccc1Cl
[1]
  growth at 10 µM: -37.8%
[2]
  growth at 10 µM: 14.3%
[3]
  growth at 10 µM: -13.6%
[4]
  growth at 10 µM: -25.2%
[5]
  growth at 10 µM: 10.9%
[6]
  growth at 10 µM: 17.8%
[7]
  GI50: 0.107 µM
  LC50 (concentration killing 50% of cells): > 100 µM
  TGI: 3.53 µM
[8]
  GI50: 0.583 µM
  TGI: > 100 µM
  CC50: > 100 µM
[9]
  GI50: 0.0369 µM
  TGI: > 100 µM
  CC50: > 100 µM
[10]
  GI50: 0.669 µM
  TGI: > 100 µM
  CC50: > 100 µM
[11]
  GI50: 0.298 µM
  TGI: > 100 µM
  CC50: > 100 µM
[12]
  growth at 10 µM: 24.3%
[13]
  growth at 10 µM: -35.1%
[14]
  growth at 10 µM: -13.3%
[15]
  growth at 10 µM: 5.64%
[16]
  growth at 10 µM: 8.35%
[17]
  growth at 10 µM: -43.4%
[18]
  growth at 10 µM: 15.6%
[19]
  growth at 10 µM: 42.5%
[20]
  GI50: 1.09 µM
  TGI: > 100 µM
  CC50: > 100 µM
[21]
  GI50: 0.564 µM
  TGI: > 100 µM
  CC50: > 100 µM
[22]
  GI50: 0.819 µM
  CC50: > 100 µM
[23]
  GI50: 0.34 µM
  TGI: 4.73 µM
  CC50: > 100 µM
[24]
  GI50: 0.468 µM
  TGI: > 100 µM
  CC50: > 100 µM
[25]
  GI50: 0.437 µM
  LC50 (concentration killing 50% of cells): > 100 µM
  TGI: 6.79 µM
[26]
  GI50: 0.266 µM
  LC50 (50% lethal concentration): > 100 µM
  TGI: 8.2 µM
[27]
  GI50: 1.39 µM
  LC50: > 100 µM
  TGI: > 100 µM
[28]
  GI50: 0.291 µM
  LC50 (50% lethal concentration): > 100 µM
  TGI: 8.24 µM
[29]
  GI50: 0.43 µM
  LC50 (concentration killing 50% of cells): > 100 µM
  TGI: 16 µM
[30]
  GI50: 0.399 µM
  LC50 (concentration killing 50% of cells): 60.7 µM
  TGI: 3.95 µM
[31]
  GI50: 0.668 µM
  TGI: > 100 µM
  CC50: > 100 µM
[32]
  GI50: 0.15 µM
  IC50: 0.15 µM
  TGI: 1.15 µM
  CC50: 6.31 µM
[33]
  growth at 10 µM: 4.07%
[34]
  growth at 10 µM: 1.22%

## O=C(Nc1cccc(-n2cc(-c3ccncc3)c(-c3ccc(Cl)c(O)c3)n2)c1)c1ccc(N2CCOCC2)c(C(F)(F)F)c1
[1]
  growth at 10 µM: 66%
[2]
  growth at 10 µM: 63.6%
[3]
  growth at 10 µM: 15.5%
[4]
  growth at 10 µM: 23.4%
[5]
  growth at 10 µM: 52.7%
[6]
  growth at 10 µM: 119%
[7]
  GI50: 2.31 µM
  LC50 (concentration killing 50% of cells): > 50 µM
  TGI: 44 µM
[8]
  GI50: 9.38 µM
  TGI: > 50 µM
  CC50: > 50 µM
[9]
  GI50: 1.63 µM
  TGI: > 50 µM
  CC50: > 50 µM
[10]
  GI50: 2.37 µM
  TGI: 36.7 µM
  CC50: > 50 µM
[11]
  GI50: 3.81 µM
  TGI: > 50 µM
  CC50: > 50 µM
[12]
  growth at 10 µM: 38.9%
[13]
  growth at 10 µM: 35.2%
[14]
  growth at 10 µM: 98%
[15]
  growth at 10 µM: 30.6%
[16]
  growth at 10 µM: 29.6%
[17]
  growth at 10 µM: 96.1%
[18]
  growth at 10 µM: 61.3%
[19]
  growth at 10 µM: 107%
[20]
  GI50: 22 µM
  TGI: > 50 µM
  CC50: > 50 µM
[21]
  GI50: 1.92 µM
  TGI: > 50 µM
  CC50: > 50 µM
[22]
  GI50: 2.83 µM
  TGI: 12.5 µM
  CC50: 46.3 µM
[23]
  GI50: 20 µM
  TGI: > 50 µM
  CC50: > 50 µM
[24]
  GI50: 3.16 µM
  TGI: > 50 µM
  CC50: > 50 µM
[25]
  GI50: 9.42 µM
  LC50 (concentration killing 50% of cells): > 50 µM
  TGI: > 50 µM
[26]
  GI50: 3.26 µM
  LC50 (50% lethal concentration): > 50 µM
  TGI: 18.4 µM
[27]
  GI50: 1.5 µM
  LC50: 42.9 µM
  TGI: 6.04 µM
[28]
  GI50: 2.89 µM
  LC50 (50% lethal concentration): > 50 µM
  TGI: 15.3 µM
[29]
  GI50: 1.63 µM
  LC50 (concentration killing 50% of cells): 49.6 µM
  TGI: 9.1 µM
[30]
  GI50: 1.85 µM
  LC50 (concentration killing 50% of cells): > 50 µM
  TGI: 24.9 µM
[31]
  GI50: 5.58 µM
  TGI: > 50 µM
  CC50: > 50 µM
[32]
  GI50: 1.71 µM
  IC50: 1.71 µM
  TGI: 7.55 µM
  CC50: 37 µM
[33]
  growth at 10 µM: 29.1%
[34]
  growth at 10 µM: 7.96%
